Target: T1, Androgen receptor (Rattus norvegicus, UniProt P15207)
T1 sequence (P15207 whole entry): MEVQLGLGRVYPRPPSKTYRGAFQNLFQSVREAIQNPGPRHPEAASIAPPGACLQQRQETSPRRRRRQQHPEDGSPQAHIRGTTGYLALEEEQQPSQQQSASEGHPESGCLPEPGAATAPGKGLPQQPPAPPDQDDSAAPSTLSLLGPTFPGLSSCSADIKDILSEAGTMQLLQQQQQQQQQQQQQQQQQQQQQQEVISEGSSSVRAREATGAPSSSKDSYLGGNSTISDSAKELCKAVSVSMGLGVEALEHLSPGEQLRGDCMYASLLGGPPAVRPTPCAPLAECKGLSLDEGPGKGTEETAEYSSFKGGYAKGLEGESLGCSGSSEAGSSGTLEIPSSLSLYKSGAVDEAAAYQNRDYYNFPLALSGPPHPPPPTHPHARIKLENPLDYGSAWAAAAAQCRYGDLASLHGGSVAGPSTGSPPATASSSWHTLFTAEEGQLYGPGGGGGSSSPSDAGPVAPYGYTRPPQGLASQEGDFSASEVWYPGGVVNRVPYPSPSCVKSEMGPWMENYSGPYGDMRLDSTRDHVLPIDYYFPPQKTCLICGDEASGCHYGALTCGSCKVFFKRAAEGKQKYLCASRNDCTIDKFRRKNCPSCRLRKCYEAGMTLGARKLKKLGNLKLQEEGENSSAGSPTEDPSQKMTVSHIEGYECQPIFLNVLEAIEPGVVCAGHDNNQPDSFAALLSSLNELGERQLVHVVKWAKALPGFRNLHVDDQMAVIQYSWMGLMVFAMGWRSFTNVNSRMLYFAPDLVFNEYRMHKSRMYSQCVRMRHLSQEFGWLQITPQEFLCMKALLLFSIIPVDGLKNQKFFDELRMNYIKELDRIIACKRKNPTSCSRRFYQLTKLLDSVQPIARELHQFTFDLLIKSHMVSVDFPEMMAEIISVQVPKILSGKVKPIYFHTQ
Experiment: Inhibition of rat prostate cytosolic androgen receptor

SMILES: CC1(C)C(=O)N(c2ccc(C#N)c(I)c2)C(=S)N1Cc1ccccc1
- Ki: 219 nM

SMILES: CCCCN1C(=S)N(c2ccc(C#N)c(I)c2)C(=O)C1(C)C
- Ki: 117 nM

SMILES: CC1(C)C(=O)N(c2ccc(C#N)c(I)c2)C(=O)N1CCCCO
- Ki: 2 nM

SMILES: CN1C(=S)N(c2ccc(C#N)c(I)c2)C(=O)C1(C)C
- Ki: 2.5 nM

SMILES: CCCCN1C(=O)N(c2ccc(C#N)c(I)c2)C(=O)C1(C)C
- Ki: 77 nM

SMILES: COCCN1C(=S)N(c2ccc(C#N)c(I)c2)C(=O)C1(C)C
- Ki: 37 nM

SMILES: C=CCN1C(=O)N(c2ccc(C#N)c(I)c2)C(=O)C1(C)C
- Ki: 59 nM

SMILES: CC1(C)C(=O)N(c2ccc(C#N)c(I)c2)C(=O)N1CCCc1ccccc1
- Ki: 639 nM

Reference: ChEMBL document CHEMBL1137917, “Synthesis and structure-activity investigation of iodinated arylhydantoins and arylthiohydantoins for development as androgen receptor radioligands” (Bioorg Med Chem Lett, 2004)
